According to ChEMBL document CHEMBL3217414, “Trifluoromethyl derivatives of canonical nucleosides: synthesis and bioactivity studies” (Medchemcomm, 2013):

Legend:
HaCaT = assay: Cytotoxicity against human HaCaT cells assessed as inhibition of cell viability after 48 hrs by MTT assay; format: cell-based; details: for IC50: Homo sapiens, HaCaT
C6 = assay: Cytotoxicity against rat C6 cells assessed as inhibition of cell viability after 48 hrs by MTT assay; format: functional, cell-based; details: for IC50: C6, 48 h
DU-145 = assay: Cytotoxicity against human DU145 cells assessed as inhibition of cell viability after 48 hrs by MTT assay; format: functional, cell-based; details: for IC50: DU-145, 48 h
L6 = assay: Cytotoxicity against rat L6 cells assessed as inhibition of cell viability after 48 hrs by MTT assay; format: cell-based; details: for IC50: Rattus norvegicus, L6, 48 h
MCF7 = assay: Cytotoxicity against human MCF7 cells assessed as inhibition of cell viability after 48 hrs by MTT assay; format: functional, cell-based; details: for IC50: MCF7, 48 h
Hepatitis B virus = assay: Antiviral activity against Hepatitis B virus; format: functional, organism-based

Row | IC50 (Hepatitis B virus) [µM] | SMILES | IC50 (HaCaT) [µM] | IC50 (C6) [µM] | IC50 (DU-145) [µM] | IC50 (L6) [µM] | IC50 (MCF7) [µM] | inhibition (INH) (HaCaT; human, hacat) | inhibition (C6) | inhibition (DU-145) | inhibition (INH) (L6; rat, l6, 48 h) | inhibition (MCF7)
1 | – | Nc1nc(O)c2ncn([C@H]3C[C@H](O)[C@@H](CO)O3)c2n1 [DEOXYGUANOSINE] | > 250 | > 250 | > 250 | > 250 | > 250 | – | – | – | – | –
2 | – | O=c1[nH]cnc2c1nc(C(F)(F)F)n2[C@@H]1O[C@H](CO)[C@@H](O)[C@H]1O | 170 | 142 | 131 | 195 | 105 | – | – | – | – | –
3 | – | Nc1ncnc2c1ncn2[C@H]1C[C@H](O)[C@@H](CO)O1 [DEOXYADENOSINE] | > 250 | > 250 | > 250 | > 250 | > 250 | – | – | – | – | –
4 | – | Nc1nc(=O)n([C@H]2C[C@H](O)[C@@H](CO)O2)cc1C(F)(F)F | 140 | 44 | 25 | 155 | 32 | – | – | – | – | –
5 | – | O=c1[nH]cnc2c1ncn2[C@@H]1O[C@H](CO)[C@@H](O)[C@H]1O [INOSINE] | > 250 | > 250 | > 250 | > 250 | > 250 | – | – | – | – | –
6 | 10 | Nc1ccn([C@H]2C=C(C(F)(F)F)[C@@H](CO)O2)c(=O)n1 | – | – | – | – | – | – | – | – | – | –
7 | – | Nc1ccn([C@H]2C[C@H](O)[C@@H](CO)O2)c(=O)n1 [DOXECITINE] | > 250 | > 250 | > 250 | > 250 | > 250 | – | – | – | – | –
8 | – | Nc1ncnc2c1nc(C(F)(F)F)n2[C@H]1C[C@H](O)[C@@H](CO)O1 | 214 | 81 | 50 | 225 | 65 | – | – | – | – | –
9 | – | Nc1nc2c(nc(C(F)(F)F)n2[C@H]2C[C@H](O)[C@@H](CO)O2)c(=O)[nH]1 | 210 | 92 | 72 | 234 | 76 | Dose-dependent effect | Dose-dependent effect | Dose-dependent effect | Dose-dependent effect | Dose-dependent effect
10 | 5 | Nc1ncnc2c1ncn2[C@H]1C=C(C(F)(F)F)[C@@H](CO)O1 | – | – | – | – | – | – | – | – | – | –
